Our source for the melting point values is patent publication US7906541B2, “Process to prepare new substituted 1H-benzo[d]imidazol-2(3H)-ones, new intermediates and their use as BACE 1 inhibitors” (Universite Paul Cezanne-Aix Marseille III, priority 2008, dated 2011).

As to `CS/C=C(/C)n1c(=O)n(C)c2ccccc21` [Example 1, 1-methyl-3-[(1Z)-1-(methylsulfanyl)prop-1-en-2-yl]-1,3-dihydro-2H-benzimidazol-2-one], the melting point (in general, the temperature of the solid-liquid transition) was 66 °C (dec.).
The same measure for `CS/C=C(/C)n1c(=O)n(Cc2ccccc2)c2ccccc21` [Example 2, 1-benzyl-3-[(1Z)-1-(methylsulfanyl)prop-1-en-2-yl]-1,3-dihydro-2H-benzimidazol-2-one]: 227 °C (dec.); for `CCn1c(=O)n(/C(C)=C\SC)c2ccccc21` [Example 5, 1-ethyl-3-[(1Z)-1-(methylsulfanyl)prop-1-en-2-yl]-1,3-dihydro-2H-benzimidazol-2-one]: 74 °C.
In turn, `CS/C=C(/C)n1c(=O)n(Cc2cc(C(F)(F)F)cc(C(F)(F)F)c2)c2ccccc21` [Example 6, 1-[3,5-bis(trifluoromethyl)benzyl]-3-[(1Z)-1-(methylsulfanyl)prop-1-en-2-yl]-1,3-dihydro-2H-benzimidazol-2-one] came in with a melting point of 148 °C.
The compound `CS/C=C(/C)n1c(=O)n(C)c2ccc(C(F)(F)F)cc21` [Example 9, 1-methyl-3-[(1Z)-1-(methylsulfanyl)prop-1-en-2-yl]-5-(trifluoromethyl)-1,3-dihydro-2H-benzimidazol-2-one] showed a melting point of 194 °C.
For the compound `CS/C=C(/C)n1c(=O)n(C)c2cc(F)ccc21` [Example 10, 5-fluoro-3-methyl-1-[(1Z)-1-(methylsulfanyl)prop-1-en-2-yl]-1,3-dihydro-2H-benzimidazol-2-one], the melting point was 110 °C.
Regarding `O=c1[nH]c2ccccc2n1Cc1ccccc1` [Example 11, 1-benzyl-1,3-dihydro-2H-benzimidazol-2-one], the melting point is 194 °C.
